The values that follow come from patent US9505769B2 (ASCENEURON SA, priority 2013, dated 2016).

Where a name gives a salt, the structure may show the parent alone. A value given as a limit tells only on which side of the number the result lay.

The first assay concerns the target T1, human muscarinic acetylcholine M1 receptor (Homo sapiens, UniProt P11229).
T1 construct: expressed in transfected cells; host or cells: CHO-K1
T1 sequence (P11229 1-460): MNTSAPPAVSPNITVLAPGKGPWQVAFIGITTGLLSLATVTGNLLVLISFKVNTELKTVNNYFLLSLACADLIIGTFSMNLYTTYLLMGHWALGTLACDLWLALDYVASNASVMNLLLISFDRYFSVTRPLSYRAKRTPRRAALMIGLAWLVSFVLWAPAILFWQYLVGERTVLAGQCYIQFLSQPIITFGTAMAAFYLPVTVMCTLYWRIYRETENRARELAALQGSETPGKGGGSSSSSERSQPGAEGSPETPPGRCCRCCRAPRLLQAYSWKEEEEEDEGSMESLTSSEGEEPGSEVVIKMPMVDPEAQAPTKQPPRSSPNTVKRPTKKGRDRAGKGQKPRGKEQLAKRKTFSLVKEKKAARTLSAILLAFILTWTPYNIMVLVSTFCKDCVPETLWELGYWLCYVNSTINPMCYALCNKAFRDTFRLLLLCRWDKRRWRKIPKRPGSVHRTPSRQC
As to the kind of experiment: M1 PAM Assay (IP-One HTRF, IP1 accumulation in M1-CHO cells). The class given is cell-based.
Conditions: not given
As for the experimental part:
Then diluted compounds (0.6% DMSO final concentration) are added together with EC20 of acetylcholine and incubated with the cells for 30 min at 37° C., 5% CO2.
CHO-K1 cells stably transfected with human muscarinic acetylcholine M1 receptor are cultured in Ham's F12 medium containing 10% heat inactivated fetal calf serum, 2 mM L-glutamine and Penicillin-Streptomycin grown in a humidified atmosphere at 5% CO2/95% air at 37° C.
A general note: TR-FRET usually uses a lanthanide donor and a delayed reading to cut background.
With `COCCN1[C@@H]2CC[C@H]1C[C@@H](Oc1cc(F)ccc1C(=O)N1Cc3nn4cc(Cl)cnc4c3C1)C2` [Example 52, (3-chloro-7H-pyrrolo[3′,4′:3,4]pyrazolo[1,5-a]pyrimidin-8(9H)-yl)(4-fluoro-2-{[(3-endo)-8-(2-methoxyethyl)-8-azabicyclo[3.2.1]oct-3-yl]oxy}phenyl)methanone], the EC50 lay in the range of 200 to 1000 nM. In the case of `Cc1nc2c3c(nn2c(C)c1Cl)CN(C(=O)c1ccc(F)cc1O[C@H]1C[C@H]2CCC[C@@H](C1)N2C)C3` [Example 58, (3-chloro-2,4-dimethyl-7H-pyrrolo[3′,4′:3,4]pyrazolo[1,5-a]pyrimidin-8(9H)-yl)(4-fluoro-2-{[(3-endo)-9-methyl-9-azabicyclo[3.2.1]nonan-3-yl]oxy}phenyl)methanone], the EC50 lay within 200 to 1000 nM. For `CCCN1[C@@H]2CC[C@H]1C[C@@H](Oc1cc(F)ccc1C(=O)N1Cc3nn4cc(Cl)cnc4c3C1)C2` [Example 64, (3-chloro-7H-pyrrolo[3′,4′:3,4]pyrazolo[1,5-a]pyrimidin-8(9H)-yl)(4-fluoro-2-{[(3-endo)-8-propyl-8-azabicyclo[3.2.1]oct-3-yl]oxy}phenyl)methanone], the EC50 was less than 200 nM. On the same count and under the same terms, the same measure for `O=C(c1ccc(F)cc1O[C@H]1C[C@H]2CC[C@@H](C1)N2CC1CC1)N1Cc2nn3cc(Cl)cnc3c2C1` [Example 59, (3-chloro-7H-pyrrolo[3′,4′:3,4]pyrazolo[1,5-a]pyrimidin-8(9H)-yl)(2-{[(3-endo)-8-(cyclopropylmethyl)-8-azabicyclo[3.2.1]oct-3-yl]oxy}-4-fluorophenyl)methanone]: less than 200 nM.

`O=C(c1ccc(F)cc1O[C@H]1C[C@H]2CC[C@@H](C1)N2CCF)N1Cc2nn3cc(Cl)cnc3c2C1` (single isomer, unassigned) [Example 51, (3-chloro-7H-pyrrolo[3′,4′:3,4]pyrazolo[1,5-a]pyrimidin-8(9H)-yl)(4-fluoro-2-{[(3-endo)-8-(2-fluoroethyl)-8-azabicyclo[3.2.1]oct-3-yl]oxy}phenyl)methanone]: the EC50 was less than 200 nM.

As for `Cc1nc2c3c(nn2c(C)c1Cl)CN(C(=O)c1ccc(F)cc1OC1CC2CC(F)C(C1)N2C)C3` (racemic) [Example 38, (3-chloro-2,4-dimethyl-7H-pyrrolo[3′,4′:3,4]pyrazolo[1,5-a]pyrimidin-8(9H)-yl)(4-fluoro-2-(((3-endo)-(6-endo)-6-fluoro-8-methyl-8-azabicyclo[3.2.1]octan-3-yl)oxy)phenyl)methanone], the concentration giving a half-maximal response (EC50) is less than 200 nM.

On to `CC(O)CN1[C@@H]2CC[C@H]1C[C@@H](Oc1cc(F)ccc1C(=O)N1Cc3nn4cc(Cl)cnc4c3C1)C2` (stereo partly drawn) [Example 73, (3-chloro-7H-pyrrolo[3′,4′:3,4]pyrazolo[1,5-a]pyrimidin-8(9H)-yl)(4-fluoro-2-{[(3-endo)-8-(2-hydroxypropyl)-8-azabicyclo[3.2.1]oct-3-yl]oxy}phenyl)methanone], for which the EC50 was 200 to 1000 nM. Turning to `Cc1nc2c3c(nn2c(C)c1Cl)CN(C(=O)c1ccc(F)cc1OC1CC2C[C@H](O)C(C1)N2C)C3` (mixture of isomers) [Example 39, (3-chloro-2,4-dimethyl-7H-pyrrolo[3′,4′:3,4]pyrazolo[1,5-a]pyrimidin-8(9H)-yl)(4-fluoro-2-(((3-endo)-(6-exo)-6-hydroxy-8-methyl-8-azabicyclo[3.2.1]octan-3-yl)oxy)phenyl)methanone], the EC50 is less than 200 nM.

The assay is the same for the next values; noted with them: CHO-K1 cells stably transfected with human M1 receptor; compounds added with EC20 of acetylcholine (25 nM), 30 min; intracellular IP1 by IP-One HTRF; read-out: M1 PAM EC50.
With “(anti)-(6-Chloro-5-ethyl-7-methyl-1H,3H-2,4,7a,8-tetraaza-cyclopenta[a]inden-2-yl)-[2-(4-hydroxy-pyrrolidin-3-yl oxy)-phenyl]-methanone or (anti)-(6-Chloro-5-methyl-7-ethyl-1H,3H-2,4,7a,8-tetraaza-cyclopenta[a]inden-2-yl)-[2-(4-hydroxy-pyrrolidin-3-yl oxy)-phenyl]-methanone [Example 10]”, the half-maximal effective concentration (EC50) is 200 to 1000 nM. For `Cc1nc2c3c(nn2c(C)c1Cl)CN(C(=O)c1ccc(F)cc1OCCN1CC[C@@H](F)C1)C3` [Example 62, (6-Chloro-5,7-dimethyl-1H,3H-2,4,7a,8-tetraaza-cyclopenta[a]inden-2-yl)-{4-fluoro-2-[2-((R)-3-fluoro-pyrrolidin-1-yl)-ethoxy]-phenyl}-methanone], the EC50 was 200 to 1000 nM. Consider `O=C(c1ccc(F)cc1OC1CCN(CCO)CC1)N1Cc2nn3cc(Cl)cnc3c2C1` [Example 35, (3-chloro-7H-pyrrolo[3′,4′:3,4]pyrazolo[1,5-a]pyrimidin-8(9H)-yl)(4-fluoro-2-((1-(2-hydroxyethyl)piperidin-4-yl)oxy)phenyl)methanone], for which the concentration giving a half-maximal response (EC50) lay within 200 to 1000 nM. In the case of `Cc1nc2c3c(nn2c(C)c1Cl)CN(C(=O)c1ccc(F)cc1OC1CN(CCF)C1)C3` [Example 46, (3-chloro-2,4-dimethyl-7H-pyrrolo[3′,4′:3,4]pyrazolo[1,5-a]pyrimidin-8(9H)-yl)(4-fluoro-2-((1-(2-fluoroethyl)azetidin-3-yl)oxy)phenyl)methanone], the half-maximal effective concentration (EC50) fell in the range of 1000 to 3000 nM. Same read-out and setting: the same measure for `Cc1nc2c3c(nn2c(C)c1Cl)CN(C(=O)c1ccccc1O[C@H]1CCC[C@@H]1O)C3` (racemic) [Example 8, (anti)-(6-Chloro-5,7-dimethyl-1H,3H-2,4,7a,8-tetraaza-cyclopenta[a]inden-2-yl)-[2-(2-hydroxy-cyclopentyloxy)-phenyl]-methanone]: 200 to 1000 nM.

With `O=C(c1ccc(F)cc1OC1CCN(CCF)CC1)N1Cc2nn3cc(Cl)cnc3c2C1` [Example 34], the EC50 was 200 to 1000 nM. On to `Cc1nc2c3c(nn2c(C)c1Cl)CN(C(=O)c1ccc(F)cc1OCCN1CCCC1)C3` [Example 16, (3-Chloro-2,4-dimethyl-7H-pyrrolo[3′,4′:3,4]pyrazolo[1,5-a]pyrimidin-8(9H)-yl)(4-fluoro-2-(2-pyrrolidinoethoxy)phenyl)methanone], for which the half-maximal effective concentration (EC50) was less than 200 nM. For the molecule `Cc1nc2c3c(nn2c(C)c1Cl)CN(C(=O)c1ccccc1O[C@H]1CNC[C@@H]1O)C3` (racemic) [Example 4, (anti)-(6-Chloro-5,7-dimethyl-1H,3H-2,4,7a,8-tetraaza-cyclopenta[a]inden-2-yl)-[2-(4-hydroxy-pyrrolidin-3-yloxy)-phenyl]-methanone], the 50% effective concentration (EC50) lay in the range of 200 to 1000 nM.

For `Cc1nc2c3c(nn2c(C)c1Cl)CN(C(=O)c1ccncc1OC1CCN(C)CC1)C3` [Example 3, (3-chloro-2,4-dimethyl-7H-pyrrolo[3′,4′:3,4]pyrazolo[1,5-a]pyrimidin-8(9H)-yl)(3-((1-methylpiperidin-4-yl)oxy)pyridin-4-yl)methanone], the concentration for a half-maximal effect (EC50) was 1000 to 3000 nM. Regarding `Cc1nc2c3c(nn2c(C)c1Cl)CN(C(=O)c1ccccc1C(C)N1CCN(C)CC1)C3` (centres unmarked) [Example 7, (3-chloro-2,4-dimethyl-7H-pyrrolo[3′,4′:3,4]pyrazolo[1,5-a]pyrimidin-8(9H)-yl)(2-(1-(4-methylpiperazin-1-yl)ethyl)phenyl)methanone], the EC50 fell in the range of 1000 to 3000 nM. With `Cc1nc2c3c(nn2c(C)c1Cl)CN(C(=O)c1ccccc1O[C@H]1COC[C@@H]1O)C3` (racemic) [Example 21, (anti)-(3-chloro-2,4-dimethyl-7H-pyrrolo[3′,4′:3,4]pyrazolo[1,5-a]pyrimidin-8(9H)-yl)(2-((4-hydroxytetrahydrofuran-3-yl)oxy)phenyl)methanone], the concentration for a half-maximal effect (EC50) lay within 1000 to 3000 nM. Same read-out and setting: the same measure for “(3-chloro-4-ethyl-2-methyl-7H-pyrrolo[3′,4′:3,4]pyrazolo[1,5-a]pyrimidin-8(9H)-yl)(2-((4-hydroxytetrahydrofuran-3-yl)oxy)phenyl)methanone or (3-chloro-2-ethyl-4-methyl-7H-pyrrolo[3′,4′:3,4]pyrazolo[1,5-a]pyrimidin-8(9H)-yl)(2-((4-hydroxytetrahydrofuran-3-yl)oxy)phenyl)methanone [Example 22]”: 1000 to 3000 nM.

On to `Cc1nc2c3c(nn2c(C)c1Cl)CN(C(=O)c1ccc(Br)cc1OCCN(C)C)C3` [Example 31, (4-bromo-2-(2-(dimethylamino)ethoxy)phenyl)(3-chloro-2,4-dimethyl-7H-pyrrolo[3′,4′:3,4]pyrazolo[1,5-a]pyrimidin-8(9H)-yl)methanone], for which the EC50 was 200 to 1000 nM. For `Cc1nc2c3c(nn2c(C)c1Cl)CN(C(=O)c1ccc(F)cc1OC[C@H]1CC(F)(F)CN1)C3` [Example 56, (6-Chloro-5,7-dimethyl-1H,3H-2,4,7a,8-tetraaza-cyclopenta[a]inden-2-yl)-[2-((R)-4,4-difluoro-pyrrolidin-2-ylmethoxy)-4-fluoro-phenyl]-methanone], the EC50 is less than 200 nM. Same read-out and setting: then `Cc1nc2c3c(nn2c(C)c1Cl)CN(C(=O)c1ccc(F)cc1O[C@H]1CCNC[C@@H]1O)C3` (single isomer, unassigned) [Example 70, (3-chloro-2,4-dimethyl-7H-pyrrolo[3′,4′:3,4]pyrazolo[1,5-a]pyrimidin-8(9H)-yl)(4-fluoro-2-(((3S,4S)-3-hydroxypiperidin-4-yl)oxy)phenyl)methanone hydrochloride or (3-chloro-2,4-dimethyl-7H-pyrrolo[3′,4′:3,4]pyrazolo[1,5-a]pyrimidin-8(9H)-yl)(4-fluoro-2-(((3R,4R)-3-hydroxypiperidin-4-yl)oxy)phenyl)methanone hydrochloride], with 200 to 1000 nM.

As usually defined, the EC50 is the midpoint of the concentration-response curve.
